This is an account of results in patent publication US5728685A, “Methods of treating inflammation using cell adhesion inhibitors” (Glycomed Incorporated, priority 1995, dated 1998).

Experiment [1] deals with L-SELECTIN (L Selectin-IgG chimera). In words: ELISA: inhibition of L-selectin binding to 2,3 sLex glycolipid. The text has this:
(§1) E-SELECTIN transfected COS cells produced by the above method may be used to assay for glucuronyl glycolipid ligands. Similarly, COS cells may be transfected with cDNAs that encode L-SELECTIN and/or P-SELECTIN. The production and characterization of L-SELECTIN IgG chimera constructs have been previously described by Watson S. R. et al., (1990) J. Cell Biol. 110:2221-2229. This chimera contains two complement binding domains, consistent with its natural expression. See Watson S. R. et al., (1991) J. Cell Biol. 115:235-243. P-SELECTIN chimera was constructed in a similar manner as described by Walz, G., et al (1990) Science 250, 1132-1135, and Aruffo, A. et al. (1991) Cell, 67, 35-44, respectively. The chimeras may be expressed in a suitable host cell, for example, 293 cells and purified. Protein A affinity chromatography is the preferred method of purification. E-SELECTIN and P-SELECTIN may be constructed with truncated complement binding domains to standardize the size of the chimeras and to facilitate their secretion. A variation of the above assay is to genetically engineer cells to express high levels of L-SELECTIN, E-SELECTIN, or P-SELECTIN on their surface, and to use the cells in lieu of purified selectin. Radiolabeled COS cells have been used in this type of assay, and can be transfected with cDNA that encodes for L-SELECTIN, E-SELECTIN or P-SELECTIN. […] The number of adherent cells reflects the capacity of the ligand to bind to the selectin.
Compounds 13a, 13b, 26 and 31 were tested for their capacity to bind to E, L and P selectin. The ELISA assay used consists of evaporating 2,3 sLex glycolipid, at 25 picomoles per well, onto microtiter wells, and then washing the excess off with water. The wells are blocked with 5% BSA at room temperature for an hour and then washed with PBS containing 1 mM Ca. While the plate is being blocked, biotin labelled goat F(ab')2 IgG (Fc specific) and streptavidinalkaline phosphatase diluted 1:1500 in 1% BSA-PBS (1 mM Ca) are combined with either the E, L or P Selectin-IgG chimera (L91-10) at 200 ng/mL and incubated at 37° C. for 15 minutes to allow a complex to form. This provides a soluble "multivalent" receptor. […] The solutions were then placed in the microtiter wells that had been washed after being blocked, and the plates incubated at 37° C. for 45 minutes to allow the soluble receptor to bind to the known natural ligand, 2,3 sLex glycolipid. The positive control was the signal produced by soluble "multivalent" receptor reacted with only the ligand evaporated to the microtiter well. This was considered "100% binding." The signal produced by receptor previously reacted with inhibitor is divided by the signal produced by the positive control, multiplied by 100, to calculate % receptor bound in the presence of the inhibitor. The reciprocal of this is % inhibition.
In general terms: An ELISA detects its analyte on a solid surface through an enzyme-linked reagent.

Experiment [2] deals with E-SELECTIN (E Selectin-IgG chimera). In words: ELISA: inhibition of E-selectin binding to 2,3 sLex glycolipid.
Excerpt: as §1
(§2) Compounds 13a, 13b, 26 and 31 were tested for their capacity to bind to E, L and P selectin. The ELISA assay used consists of evaporating 2,3 sLex glycolipid, at 25 picomoles per well, onto microtiter wells, and then washing the excess off with water. The wells are blocked with 5% BSA at room temperature for an hour and then washed with PBS containing 1 mM Ca. While the plate is being blocked, biotin labelled goat F(ab')2 IgG (Fc specific) and streptavidinalkaline phosphatase diluted 1:1500 in 1% BSA-PBS (1 mM Ca) are combined with either the E, L or P Selectin-IgG chimera (L91-10) at 200 ng/mL and incubated at 37° C. for 15 minutes to allow a complex to form. This provides a soluble "multivalent" receptor. Compounds 13a and 13b were added at final concentrations ranging from 1.5 to 5.0 mM to the soluble receptor and allowed to react at 37° C. for 45 minutes. The solutions were then placed in the microtiter wells that had been washed after being blocked, and the plates incubated at 37° C. for 45 minutes to allow the soluble receptor to bind to the known natural ligand, 2,3 sLex glycolipid. The positive control was the signal produced by soluble "multivalent" receptor reacted with only the ligand evaporated to the microtiter well. This was considered "100% binding." The signal produced by receptor previously reacted with inhibitor is divided by the signal produced by the positive control, multiplied by 100, to calculate % receptor bound in the presence of the inhibitor. The reciprocal of this is % inhibition.

Experiment [3] has as its system P-SELECTIN (P Selectin-IgG chimera). Nature of the experiment: ELISA: inhibition of P-selectin binding to 2,3 sLex glycolipid.
Excerpt: as §1, §2

The next experiment deals with L-Selectin. The note with it: cited from earlier work.
For another experiment, the system named is P-SELECTIN
The following applies: cited from earlier work.

Experiment [4] deals with neutrophil-dependent injury to the lung endothelium and alveolar epithelium. In words: Acute Lung Injury Assay (acid aspiration injury). The note with it: 10 mg/kg/hr IV; for Alveolar-arterial blood oxygen gradient: as compared to control animals. Format: in vivo, New Zealand White rabbits. The text has this: Experiments were done to determine the effectiveness of compounds 13b or 31 in their ability to reduce neutrophil-dependent injury to the lung endothelium and alveolar epithelium following acid aspiration injury.
Female New Zealand White rabbits (1 each/group, approx. 2 KG each) were anesthetized with halothane and ventilated with positive pressure ventilation supplemented with oxygen. Vascular catheters were placed in the carotid artery, into the internal jugular vein, and a tracheostomy was made for positive pressure ventilation. A low pH solution (HCl, pH 1.5) was installed in Ringer's lactate (osmolality=approximately 100) at a dose of 3 ml/kg into the trachea to stimulate a gastric aspiration induced lung injury. Compound 13b or 31 were injected (10 mg/kg/hr IV) 5 minutes prior to intratracheal instillation of the low pH solutions continued by hourly injections until the end of the experiment. Appropriate controls were used. An intravascular as well as an intra-alveolar radiolabelled protein tracer was injected to quantify lung endothelial and alveolar epithelial protein permeability. Arterial blood gases, systemic blood pressure and airways were monitored. At the end of 6 hours the lungs were removed and alveolar fluid was sampled from both lungs in order to measure the concentration of native protein as well as radiolabelled proteins in the airspaces to calculate lung vascular and lung epithelial permeability. Also, one lung was lavaged in order to count the neutrophils that are present in the airspaces of the lungs. Extravascular lung water measurements was done on the lung which was not lavaged. Histological samples were taken from selected portions of the lung.

For experiment [5], the system named is adhesion of human neutrophils in the rabbit isolated heart. Nature of the experiment: Reperfusion Injury Assay: complement-induced neutrophil adhesion in isolated perfused heart. Details: species or system human neutrophils; New Zealand White rabbit heart. An excerpt: Experiments were done to determine the effectiveness of compound 13b in decreasing adhesion of human neutrophils in the rabbit isolated […]. Addition of the human plasma to the rabbit isolated […] results in activation of the complement components found within the plasma, which in turn promotes an increase in the neutrophil accumulation. This model is used to determine the effect of lactose derivatives on inhibiting complement-induced neutrophil adhesion.
Hearts from New Zealand White rabbits were excised, mounted on a modified Langendorff apparatus and perfused with Krebs-Heinseleit buffer. Cardiac functional parameters were monitored upon a Grass Model 79D polygraph machine. 4% normal human plasma (NHP) was added to the recirculating buffer. Ten minutes after the addition of the plasma, 13b (0.1 mg/ml) was added to the perfusate. After 15 minutes of perfusion with the plasma, 51-chromium labelled human neutrophils (1×10^5 /ml) were added to the perfusate and allowed to recirculate for an additional 15 minutes. At the end of this time the hearts were washed with fresh buffer to remove non-specifically bound neutrophils, dried and counted in a well type gamma-counter. A concentration response curve was generated using concentrations of 0.001, 0.01 and 0.1 mg/ml. Six hearts were used for each of these concentrations.
Table 4 lists the results, expressed as the percent inhibition of neutrophil accumulation.

Take `CCCCCCCCO[C@@H]1O[C@H](CO)[C@@H](O[C@@H]2O[C@H](CO)[C@H](O)[C@H](OS(=O)(=O)O)[C@H]2O)[C@H](O[C@@H]2O[C@@H](C)[C@@H](O)[C@@H](O)[C@@H]2O)[C@H]1O` [Compound 26]: the “% INHIBITION of L-selectin binding to sLeX” value in experiment [1] (0.5 mM) came to 0%; in experiment [1] (1.0 mM) it was 30%; in experiment [1] (2.0 mM) it was 30%; in experiment [1] (4.0 mM), 30%. Moreover, the “inhibition of binding of E selectin to 2,3 sLex glycolipid (in words)” value (“inhibition of binding of E selectin” below) in experiment [2] was “inhibit binding of E selectin to 2,3 sLex glycolipid”. Besides, the “% INHIBITION of E-selectin binding to sLeX” value is recorded as 0% in experiment [2] (0.5 mM), 30% in experiment [2] (1.0 mM), 50% in experiment [2] (2.0 mM) and 70% in experiment [2] (4.0 mM). Further, the “% INHIBITION of P-selectin binding to sLeX” value is 0% in experiment [3] (0.5 mM), 20% in experiment [3] (1.0 mM), 40% in experiment [3] (2.0 mM) and 45% in experiment [3] (4.0 mM). The “inhibition of P selectin binding to 2,3 sLex glycolipid (in words)” value in experiment [3] (as compared to L-selectin) is given as “better inhibitor of P selectin (as compared to L-selectin)”.

For `CC(=O)NC1C(O)CC(OC2C(O)C(CO)OC(OC3C(CO)OC(O)C(NC(C)=O)C3OC3OC(C)C(O)C(O)C3O)C2O)(C(=O)O)OC1C(O)C(O)CO` (stereo not drawn) [sialyl Lewis X, NeuNAc α2-3-Gal-β1-4(Fucα1-3)-GlcNAc], the “binding to L-Selectin” value in the experiment with L-Selectin is “binds”.

Turning to sulfatides, the “binding to P-Selectin” value with P-SELECTIN is given as “bind”.

On to `C[C@@H]1O[C@@H](O[C@H]2[C@H](O[C@@H]3O[C@H](CO)[C@H](O)[C@H](OS(=O)(=O)O)[C@H]3O)[C@@H](CO)OC(O)[C@@H]2O)[C@@H](O)[C@H](O)[C@@H]1O` (stereo partly drawn) [Compound 13b, O-α-L-fucopyranoayl-(1→3)-O-[sodium β-D-galactopyranosyl 3-sulfate-(1→4)]-D-glucopyranose], for which, in experiment [1], the “inhibition of binding of L selectin to 2,3 sLex glycolipid (in words)” value (“inhibition of binding of L selectin” below) is on record as “inhibit binding of L selectin”. Also, the “% INHIBITION of L-selectin binding to sLeX” value in experiment [1] (1.25 mM) is 90%; in experiment [1] (2.0 mM), 100%; in experiment [1] (2.5 mM) it was 100%. Further, the “inhibition of binding of E selectin” value in experiment [2] is reported as “inhibit binding of E selectin to 2,3 sLex glycolipid”. Besides, the “% INHIBITION of E-selectin binding to sLeX” value worked out at 48.5% in experiment [2] (1.25 mM), 45.4% in experiment [2] (2.5 mM) and 82.5% in experiment [2] (5.0 mM). For the same compound, in experiment [4], the “Alveolar-arterial blood oxygen gradient” value is on record as “decrease”. In addition, the “degree of inhibition of neutrophil adhesion (in words)” value in experiment [5] (0.1 mg/ml) is “most significant degree of inhibition”. In experiment [5] (0.001, 0.01 and 0.1 mg/ml), the “inhibition of neutrophil adhesion (in words)” value is “inhibited neutrophil adhesion in a concentration-dependent manner”. Moreover, the inhibition at 100 µg/mL in experiment [5] (Neutrophil, Table 4, 13b (0.1 mg/ml) added to the perfusate, read-out: % Neutrophil Inhibition (percent inhibition of neutrophil accumulation)) amounted to 35%.

For `C[C@@H]1O[C@@H](O[C@@H]2[C@@H](O)[C@H](OCC[Si](C)(C)C)O[C@H](CO)[C@H]2O[C@@H]2O[C@H](CO)[C@H](O)[C@H](OS(=O)(=O)O)[C@H]2O)[C@@H](O)[C@H](O)[C@@H]1O` [Compound 13a, 2-(Trimethylsilyl) ethyl O-α-L-fucopyranosyl-(1→3)-O-[sodium-β-D-galactopyranosyl3-sulfate-(1→4)]-β-D-glucopyranoside], the “inhibition of binding of L selectin” value in experiment [1] is “inhibit binding of L selectin”. Further, the “% INHIBITION of L-selectin binding to sLeX” value is given as 13% in experiment [1] (1.25 mM), 27% in experiment [1] (2.5 mM) and 47% in experiment [1] (5.0 mM). Besides, the “inhibition of binding of E selectin” value in experiment [2] is “inhibit binding of E selectin to 2,3 sLex glycolipid”. For the same compound, the “% INHIBITION of E-selectin binding to sLeX” value in experiment [2] (1.25 mM) is on record as 30%; in experiment [2] (2.5 mM), 34%; in experiment [2] (5.0 mM) it was 48%.

Turning to `CCCCCCCCO[C@@H]1O[C@H](CO)[C@@H](O[C@@H]2O[C@H](CO)[C@H](O)[C@H](OS(=O)(=O)O)[C@H]2O)[C@H](O)[C@H]1O` [Compound 31, Octyl 4-O-(sodium β-D-galactopyranosyl 3-sulfate)-β-glucopyranoside], the “inhibition of binding of L selectin” value in experiment [1] was “inactive”. Also, the “% INHIBITION of L-selectin binding to sLeX” value in experiment [1] (0.5 mM), in experiment [1] (1.0 mM), in experiment [1] (2.0 mM) and in experiment [1] (4.0 mM) was 0% in each case. Further, the “inhibition of binding of E selectin” value in experiment [2] is “inactive”. The “% INHIBITION of E-selectin binding to sLeX” value in experiment [2] (0.5 mM), in experiment [2] (1.0 mM), in experiment [2] (2.0 mM) and in experiment [2] (4.0 mM) was 0% throughout. The “Alveolar-arterial blood oxygen gradient” value in experiment [4] is listed as “decrease”. For the same compound, in experiment [4] (following acid aspiration injury), the “neutrophil-dependent injury to the lung endothelium and alveolar epithelium” value is “effectively reduced neutrophil-dependent injury”.

Broadly, the inhibition is the drop in the measured response relative to a control, in per cent.
